Test results as given in US9695155B2, “Herbicidal substituted pyrimidinyloxy benzene compounds” (E. I. DU PONT DE NEMOURS AND COMPANY, priority 2013, dated 2017).

How the values were obtained:
[1] = tested on: giant foxtail; assay: Test A preemergence; format: in vivo, Setaria faberii
How it was run: (§1)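 Compounds in non-phytotoxic solvent with surfactant applied as soil spray preemergence, or postemergence to plants 2-10 cm at one- to two-leaf stage, in loam/sand. After approximately 10 days in greenhouse, injury rated visually versus untreated controls, 0 (no effect) to 100 (complete control).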

[2] = tested on: barnyardgrass; assay: Test A postemergence; format: in vivo, Echinochloa crus-galli
How it was run: as §1

[3] = tested on: giant foxtail; assay: Test A postemergence; format: in vivo, Setaria faberii; details: 0 to 100 scale where 0 is no effect and 100 is complete control
How it was run: as §1

[4] = tested on: morningglory; assay: Test A postemergence; format: in vivo, Ipomoea spp.; details: 0 to 100 scale where 0 is no effect and 100 is complete control
How it was run: as §1

[5] = tested on: pigweed; assay: Test A postemergence; format: in vivo, Amaranthus retroflexus; details: 0 to 100 scale where 0 is no effect and 100 is complete control
How it was run: as §1

[6] = tested on: Heteranthera limosa; assay: Test B flooded paddy test; format: in vivo; details: Flood, 250 g ai/ha; 0 to 100 scale where 0 is no effect and 100 is complete control
How it was run: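 Post-emergence paddy-water application at the 2-leaf stage, with 3 cm flood kept for the whole test. Response was judged visually relative to controls after 13 to 15 greenhouse days, 0 indicating no effect and 100 complete control.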

[7] = tested on: blackgrass; assay: Test C preemergence; format: in vivo, Alopecurus myosuroides; details: for Blackgrass plant response rating: preemergence, scale 0 (no effect) to 100 (complete control)
How it was run: (§2)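 Rated visually on 0–100 (100 = complete control) after 13–15 days under glass. Treatments went onto freshly seeded loam/sand soil or onto emerged plants at the 1- to 4-leaf stage, using a surfactant-containing solvent formulation.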

[8] = tested on: Italian ryegrass; assay: Test C preemergence; format: in vivo, Lolium multiflorum; details: for Ryegrass, Italian plant response rating: preemergence, scale 0 (no effect) to 100 (complete control)
How it was run: as §2

[9] = tested on: wheat, winter; assay: Test C preemergence; format: in vivo, Triticum aestivum; details: for Wheat plant response rating: preemergence, scale 0 (no effect) to 100 (complete control)
How it was run: as §2

[10] = tested on: lambsquarters; assay: Test C preemergence; format: in vivo, Chenopodium album; details: for Lambsquarters plant response rating: preemergence, scale 0 (no effect) to 100 (complete control)
How it was run: as §2

[11] = tested on: barnyardgrass; assay: Test C preemergence; format: in vivo, Echinochloa crus-galli; details: for Barnyardgrass plant response rating: preemergence, scale 0 (no effect) to 100 (complete control)
How it was run: as §2

[12] = tested on: velvetleaf; assay: Test C preemergence; format: in vivo, Abutilon theophrasti; details: for Velvetleaf plant response rating: preemergence, scale 0 (no effect) to 100 (complete control)
How it was run: as §2

[13] = tested on: Italian ryegrass; assay: Test C postemergence; format: in vivo, Lolium multiflorum; details: for Plant response rating (0 to 100), Ryegrass, Italian: postemergence; for Plant response rating, Ryegrass, Italian: Postemergence, scale 0 to 100 (0 no effect, 100 complete control)
How it was run: as §2

[14] = tested on: johnsongrass; assay: Test C postemergence; format: in vivo, Sorghum halepense; details: for Plant response rating (0 to 100), Johnsongrass: postemergence; for Plant response rating, Johnsongrass: Postemergence, scale 0 to 100 (0 no effect, 100 complete control)
How it was run: as §2

[15] = tested on: soybean; assay: Test C postemergence; format: in vivo, Glycine max; details: for Plant response rating (0 to 100), Soybean: postemergence; for Plant response rating, Soybean: Postemergence, scale 0 to 100 (0 no effect, 100 complete control)
How it was run: as §2

[16] = 125 g ai/ha, 0 to 100 scale where 0 is no effect and 100 is complete control
[17] = Preemergence, 31 g ai/ha, scale 0 to 100, 0 no effect, 100 complete control

## N#Cc1cccc(Oc2ncc(F)cn2)c1-n1cc(Cl)cn1 [Compound 73]
[1]; [16]
  Plant response rating, Foxtail, Giant: 100
[1]; 500 g ai/ha, 0 to 100 scale, 0 no effect, 100 complete control, approx. 10 days
  Foxtail, Giant plant response rating: 100
[2]; [16]
  Plant response rating, Barnyardgrass: 90
[2]; 500 g ai/ha, 0 to 100 scale, 0 no effect, 100 complete control
  Plant response rating, Barnyardgrass: 90
[3]; 125 g ai/ha
  Plant response rating, Foxtail, Giant: 90
[3]; 500 g ai/ha
  Plant response rating, Foxtail, Giant: 100
[4]; 125 g ai/ha
  Plant response rating, Morningglory: 90
[4]; 500 g ai/ha
  Plant response rating, Morningglory: 100
[5]; 125 g ai/ha
  Plant response rating, Pigweed: 100
[5]; 500 g ai/ha
  Plant response rating, Pigweed: 100
[6]
  Plant response rating, Ducksalad: 70
[7]; 62 g ai/ha
  Blackgrass plant response rating: 80
[7]; 125 g ai/ha
  Blackgrass plant response rating: 90
[7]; 250 g ai/ha
  Blackgrass plant response rating: 90
[7]; [17]
  Plant response rating, Blackgrass: 0
[8]; 62 g ai/ha
  Ryegrass, Italian plant response rating: 5
[8]; 125 g ai/ha
  Ryegrass, Italian plant response rating: 55
[8]; 250 g ai/ha
  Ryegrass, Italian plant response rating: 70
[8]; [17]
  Plant response rating, Ryegrass, Italian: 0
[9]; 62 g ai/ha
  Wheat plant response rating: 0
[9]; 125 g ai/ha
  Wheat plant response rating: 5
[9]; 250 g ai/ha
  Wheat plant response rating: 85
[9]; [17]
  Plant response rating, Wheat: 0
[10]; 62 g ai/ha
  Lambsquarters plant response rating: 98
[10]; 125 g ai/ha
  Lambsquarters plant response rating: 98
[10]; 250 g ai/ha
  Lambsquarters plant response rating: 98
[10]; [17]
  Plant response rating, Lambsquarters: 60
[11]; 62 g ai/ha
  Barnyardgrass plant response rating: 80
[11]; 125 g ai/ha
  Barnyardgrass plant response rating: 100
[11]; 250 g ai/ha
  Barnyardgrass plant response rating: 100
[11]; [17]
  Plant response rating, Barnyardgrass: 60
[12]; 62 g ai/ha
  Velvetleaf plant response rating: 75
[12]; 125 g ai/ha
  Velvetleaf plant response rating: 100
[12]; 250 g ai/ha
  Velvetleaf plant response rating: 100
[12]; [17]
  Plant response rating, Velvetleaf: 60
[13]; 125 g ai/ha
  Plant response rating (0 to 100), Ryegrass, Italian: 0
[13]; 250 g ai/ha
  Plant response rating (0 to 100), Ryegrass, Italian: 5
[13]; 31 g ai/ha, 13 to 15 days
  Plant response rating, Ryegrass, Italian: 0
[13]; 62 g ai/ha
  Plant response rating, Ryegrass, Italian: 0
[14]; 125 g ai/ha
  Plant response rating (0 to 100), Johnsongrass: 5
[14]; 250 g ai/ha
  Plant response rating (0 to 100), Johnsongrass: 25
[14]; 31 g ai/ha, 13 to 15 days
  Plant response rating, Johnsongrass: 0
[14]; 62 g ai/ha
  Plant response rating, Johnsongrass: 5
[15]; 125 g ai/ha
  Plant response rating (0 to 100), Soybean: 80
[15]; 250 g ai/ha
  Plant response rating (0 to 100), Soybean: 90
[15]; 31 g ai/ha, 13 to 15 days
  Plant response rating, Soybean: 40
[15]; 62 g ai/ha
  Plant response rating, Soybean: 70
